In ChEMBL document CHEMBL4304772, “Synthesis, in vitro biological evaluation and in silico studies of certain arylnicotinic acids conjugated with aryl (thio)semicarbazides as a novel class of anti-leishmanial agents” (Eur J Med Chem, 2019):
The source made the active and inactive calls. No cut-off for these calls is given here.

How the values were obtained:
Leishmania major [1] = conditions: 100 uM
Description: Inhibition of DHFR-TS/PTR1 in Leishmania major promastigote form assessed as parasite survival at 100 uM measured after 48 hrs relative to control

Leishmania major [2] = test: Reversible inhibition of DHFR-TS/PTR1 in Leishmania major promastigote form in presence of excess folic acid
Leishmania major [3] = conditions: 100 uM; remark: listed apart in the source
Description: Inhibition of DHFR-TS/PTR1 in Leishmania major promastigote form assessed as parasite survival at 100 uM measured after 48 hrs in presence of 100 uM folic acid relative to control

Leishmania major [4] = test: Antileishmanial activity against Leishmania major promastigotes measured after 24 hrs by alamar blue staining based fluorescence assay; type: functional, organism-based
Leishmania major [5] = test: Potency index, ratio of miltefosine IC50 for Leishmania major amastigote form to compound IC50 for Leishmania major amastigote form; type: functional
Leishmania major [6] = test: Antileishmanial activity against Leishmania major amastigotes measured after 72 hrs by resazurin dye based fluorescence assay; type: functional, organism-based
[7] = Selectivity index, ratio of CC50 for African green monkey Vero cells to IC50 for leishmania major promastigote; type: toxicity; conditions: read-out: Ratio CC50/IC50
[8] = Cytotoxicity against African green monkey Vero cells after 72 hrs by crystal violet staining based assay; type: cell-based; conditions: chlorocebus sabaeus
Leishmania major [9] = test: Inhibition of DHFR-TS/PTR1 in Leishmania major promastigote form assessed as parasite survival at 5.9 uM measured after 48 hrs in presence of 20 uM folic acid relative to control
Leishmania major [10] = test: Inhibition of DHFR-TS/PTR1 in Leishmania major promastigote form assessed as parasite survival at 5.9 uM measured after 48 hrs relative to control
Leishmania major [11] = test: Antileishmanial activity against Leishmania major promastigote form assessed as parasite survival at 5.9 uM measured after 48 hrs in presence of 100 uM folinic acid relative to control; type: functional
Leishmania major [12] = test: Antileishmanial activity against Leishmania major promastigote form assessed as parasite survival at 5.9 uM measured after 48 hrs in presence of 20 uM folinic acid relative to control; type: functional
Leishmania major [13] = test: Inhibition of DHFR-TS/PTR1 in Leishmania major promastigote form assessed as parasite survival at 5.9 uM measured after 48 hrs in presence of 100 uM folic acid relative to control
Leishmania major [14] = test: Inhibition of DHFR-TS/PTR1 in Leishmania major promastigote form assessed as parasite survival at 4.5 uM measured after 48 hrs relative to control
Leishmania major [15] = test: Antileishmanial activity against Leishmania major promastigote form assessed as parasite survival at 4.5 uM measured after 48 hrs in presence of 20 uM of folinic acid relative to control; type: functional
Leishmania major [16] = test: Antileishmanial activity against Leishmania major promastigote form assessed as parasite survival at 4.5 uM measured after 48 hrs in presence of 100 uM of folinic acid relative to control; type: functional
Leishmania major [17] = test: Inhibition of DHFR-TS/PTR1 in Leishmania major promastigote form assessed as parasite survival at 4.5 uM measured after 48 hrs in presence of 100 uM of folic acid relative to control
Leishmania major [18] = test: Inhibition of DHFR-TS/PTR1 in Leishmania major promastigote form assessed as parasite survival at 4.5 uM measured after 48 hrs in presence of 20 uM folic acid relative to control

| SMILES | reversible inhibition (active/inactive) (Leishmania major [2]) | IC50 (Leishmania major [4]) [µM] | also measured |
| --- | --- | --- | --- |
| COc1cc(Cc2cnc(N)nc2N)cc(OC)c1OC | Active |  | Survival (Leishmania major [1]): 69%; Survival (Leishmania major [3]): 99% |
| COc1ccc(-c2ccc(C(=O)NNC(=O)Nc3ccc(Cl)cc3)c(C)n2)cc1 | Active | 21.9 |  |
| COc1ccc(-c2ccc(C(=O)NNC(=S)Nc3ccc(C)cc3)c(C)n2)cc1 | Active | 10.7 | Ratio IC50 (Leishmania major [5]): 1.2 - 2.2 |
| COc1ccc(-c2ccc(C(=O)NNC(=S)Nc3ccc(Cl)cc3)c(C)n2)cc1 | Active | 16.7 |  |
| COc1ccc(-c2ccc(C(=O)NNC(=O)Nc3ccc(Cl)cc3)c(C)n2)cc1OC | Active | 18.8 |  |
| COc1ccc(-c2ccc(C(=O)NNC(=S)Nc3ccccc3)c(C)n2)cc1OC | Active | 9.2 |  |
| COc1ccc(NC(=O)NNC(=O)c2ccc(-c3cc(OC)c(OC)c(OC)c3)nc2C)cc1 | Active | 22.5 |  |
| COc1ccc(NC(=S)NNC(=O)c2ccc(-c3ccc(OC)c(OC)c3)nc2C)cc1 | Active | 6.4 | IC50 (Leishmania major [6]): 4.8 µM; selectivity ratio [7]: 98.8; Ratio IC50 (Leishmania major [5]): 1.2 - 2.2; CC50 at 72 h [8]: 632 µM |
| CCCCCCCCCCCCCCCCOP(=O)([O-])OCC[N+](C)(C)C [MILTEFOSINE] |  | 7.6 | IC50 (Leishmania major [6]): 7.3 µM |
| COc1cc(-c2ccc(C(=O)NNC(=S)Nc3ccccc3)c(C)n2)cc(OC)c1OC | Active | 5.7 | IC50 (Leishmania major [6]): 4.2 µM; Survival (Leishmania major [9]): 72%; Survival (Leishmania major [10]): 25%; Survival (Leishmania major [11]): 88%; selectivity ratio [7]: 90.1; Survival (Leishmania major [12]): 75%; Ratio IC50 (Leishmania major [5]): 1.2 - 2.2; CC50 at 72 h [8]: 513 µM; Survival (Leishmania major [13]): 84% |
| COc1ccc(-c2ccc(C(=O)NNC(=S)Nc3ccccc3)c(C)n2)cc1 | Active | 12 |  |
| COc1cc(-c2ccc(C(=O)NNC(=O)Nc3ccccc3)c(C)n2)cc(OC)c1OC | Active | 19.8 |  |
| COc1cc(-c2ccc(C(=O)NNC(=S)Nc3ccc(Cl)cc3)c(C)n2)cc(OC)c1OC | Active | 4.3 | IC50 (Leishmania major [6]): 3.3 µM; Survival (Leishmania major [14]): 23%; Survival (Leishmania major [15]): 81%; Survival (Leishmania major [16]): 93%; Survival (Leishmania major [17]): 87%; selectivity ratio [7]: 122; Ratio IC50 (Leishmania major [5]): 1.2 - 2.2; CC50 at 72 h [8]: 523 µM; Survival (Leishmania major [18]): 78% |
| COc1ccc(-c2ccc(C(=O)NNC(=O)Nc3ccccc3)c(C)n2)cc1OC | Active | 16.7 |  |
| COc1ccc(NC(=O)NNC(=O)c2ccc(-c3ccc(OC)cc3)nc2C)cc1 | Active | 20 |  |
| COc1ccc(-c2ccc(C(=O)NNC(=O)Nc3ccccc3)c(C)n2)cc1 | Active | 18.6 |  |
| COc1ccc(NC(=S)NNC(=O)c2ccc(-c3cc(OC)c(OC)c(OC)c3)nc2C)cc1 | Active | 5.8 | IC50 (Leishmania major [6]): 5.9 µM; selectivity ratio [7]: 87.2; Ratio IC50 (Leishmania major [5]): 1.2 - 2.2; CC50 at 72 h [8]: 506 µM |
| COc1cc(-c2ccc(C(=O)NNC(=O)Nc3ccc(Cl)cc3)c(C)n2)cc(OC)c1OC | Active | 23.9 |  |
| COc1ccc(NC(=O)NNC(=O)c2ccc(-c3ccc(OC)c(OC)c3)nc2C)cc1 | Active | 19.7 |  |
| COc1ccc(NC(=S)NNC(=O)c2ccc(-c3ccc(OC)cc3)nc2C)cc1 | Active | 11.4 |  |
| COc1cc(-c2ccc(C(=O)NNC(=S)Nc3ccc(C)cc3)c(C)n2)cc(OC)c1OC | Active | 6.1 | IC50 (Leishmania major [6]): 5.8 µM; selectivity ratio [7]: 94.2; Ratio IC50 (Leishmania major [5]): 1.2 - 2.2; CC50 at 72 h [8]: 574 µM |
| COc1ccc(-c2ccc(C(=O)NNC(=S)Nc3ccc(Cl)cc3)c(C)n2)cc1OC | Active | 17.4 |  |
| COc1ccc(-c2ccc(C(=O)NNC(=S)Nc3ccc(C)cc3)c(C)n2)cc1OC | Active | 10.2 |  |
